Source: ChEMBL document CHEMBL4483862, “Open-source discovery of chemical leads for next-generation chemoprotective antimalarials” (2018)
pIC50: −log10 of the molar value.

System: Plasmodium berghei
Experiment: Luciferase/luciferin-expressing antifolate-resistant parasites were used to infect a culture of HepG2 cells that were pre-incubated with compounds. Infected hepatocytes emit light due to the luciferase reaction. Assay results are presented as the percent inhibition of light emission compared to control. […]
Assay type: functional
Details: sporozoite; for IC90: read-out: LUCIFERASE INFECTION ASSAY - IC90
[1] = read-out: LUCIFERASE INFECTION ASSAY - IC50

Row | SMILES | IC90 [µM] | pIC50 [1] | further results
1 | CC(C)(C)c1cc(C(=O)Nc2cc(-c3cccs3)nn2-c2ccc(I)cc2)n(Cc2ccccc2)n1 | > 5.43 | – | pIC50 (PBLUC_HILL_SLOPE 1.99, PBLUC_R_SQUARED 0.0392, read-out: LUCIFERASE INFECTION ASSAY - IC50): 5.39
2 | CC(CC(=O)Nc1ccc(Cl)cc1)NCC(C)(C)N1CCOCC1 (stereo not drawn) | > 10 | – | pIC50 (PBLUC_HILL_SLOPE 1.7, PBLUC_R_SQUARED 0.0143, read-out: LUCIFERASE INFECTION ASSAY - IC50): 5.33
3 | COc1ccccc1-c1ccc2ncc(-c3cccnc3)n2n1 | 4.41 | – | pIC50 (HEPG2TOX_HILL_SLOPE 0.11, HEPG2TOX_R_SQUARED 0.0747, PBLUC_HILL_SLOPE 11.9, PBLUC_R_SQUARED 0.526, read-out: LUCIFERASE INFECTION ASSAY - IC50): 5.44
4 | O=C(Nc1nc2ccccc2[nH]1)c1cc2ccccc2cc1O | > 10 | – | pIC50 (PBLUC_HILL_SLOPE 1.13, 0.699, PBLUC_R_SQUARED 0.533, 0.940, read-out: LUCIFERASE INFECTION ASSAY - IC50): 5.71
5 | CCN1C/C(=C/c2ccc(NC(C)=O)cc2)C(=O)/C(=C/c2ccc(NC(C)=O)cc2)C1 | > 10 | < 5.00 | –
6 | Cc1ccc(Nc2nc(COC(=O)c3ccccc3Sc3ccc(C(F)(F)F)cc3[N+](=O)[O-])cs2)cc1 | > 10 | < 5.00 | –
7 | O=C(CSc1ccc(S(=O)(=O)N2CCOCC2)cn1)NC(c1ccccc1)c1cccs1 (stereo not drawn) | > 10 | < 5.00 | –
8 | CC(=O)Nc1ccc(OCc2ccccc2C(F)(F)F)cc1 | 5.57 | – | pIC50 (PBLUC_HILL_SLOPE 1.68, PBLUC_R_SQUARED 0.57, read-out: LUCIFERASE INFECTION ASSAY - IC50): 5.82
9 | CNC(=O)c1cccc(-c2ccc3ncc(-c4ccc(CO)cc4)n3n2)c1 | > 10 | – | pIC50 (HEPG2TOX_HILL_SLOPE 13.1, HEPG2TOX_R_SQUARED 0.574, PBLUC_HILL_SLOPE 1.06, PBLUC_R_SQUARED 0.813, read-out: LUCIFERASE INFECTION ASSAY - IC50): 5.86
10 | CC1(C)CC(=O)c2c(SCCOC(=O)Nc3ccccc3)sc(C#N)c2C1 | > 8.24 | < 5.08 | –
11 | O=S(=O)(c1ccc(C(F)(F)F)cn1)c1cccs1 | > 11.3 | – | pIC50 (PBLUC_HILL_SLOPE 0.531, PBLUC_R_SQUARED 0.132, read-out: LUCIFERASE INFECTION ASSAY - IC50): < 4.95
12 | Cc1cc(C(=O)CN2C(=O)NC(C)(C3CC3)C2=O)c(C)n1C(c1ccccc1)c1ccccc1 (stereo not drawn) | 6.7 | – | pIC50 (FFLUC_HILL_SLOPE 14.7, FFLUC_R_SQUARED 0.253, PBLUC_HILL_SLOPE 1.67, PBLUC_R_SQUARED 0.756, read-out: LUCIFERASE INFECTION ASSAY - IC50): 5.74
13 | CC(Sc1nccn1-c1cccc(F)c1)C(=O)Nc1ccc(N2CCOCC2)cc1 (stereo not drawn) | > 10 | – | pIC50 (FFLUC_HILL_SLOPE 11.8, FFLUC_R_SQUARED 0.0999, read-out: LUCIFERASE INFECTION ASSAY - IC50): < 5.00
14 | N#CC(C#N)=NNc1ccc(-c2ccccc2)cc1 | > 10 | – | pIC50 (HEPG2TOX_HILL_SLOPE 3.84, HEPG2TOX_R_SQUARED 0.689, PBLUC_HILL_SLOPE 2.62, PBLUC_R_SQUARED 0.817, read-out: LUCIFERASE INFECTION ASSAY - IC50): 5.33
15 | CN(Cc1ccc(Cl)cc1Cl)C(=O)NCc1ccc(S(=O)(=O)N2CCCCC2)cc1 | > 10 | – | pIC50 (PBLUC_HILL_SLOPE 15.3, PBLUC_R_SQUARED 0.472, read-out: LUCIFERASE INFECTION ASSAY - IC50): 5.03
16 | CC(=O)Nc1sc2c(c1C(=O)OCC(=O)Nc1cc(S(=O)(=O)N3CCOCC3)ccc1Cl)CCCC2 | > 10 | < 5.00 | –
17 | CCOc1cccc2c(C)nc(Nc3nc(=O)c4ccccc4[nH]3)nc12 | 7.27 | – | pIC50 (HEPG2TOX_HILL_SLOPE 3.19, HEPG2TOX_R_SQUARED 0.9, PBLUC_HILL_SLOPE 4.13, PBLUC_R_SQUARED 0.554, read-out: LUCIFERASE INFECTION ASSAY - IC50): 5.37
18 | CN(C)CCNC(=O)c1ccc(-c2cn3c(-c4ccc(N(C)C)cc4)cnc3cn2)cc1 | > 7.7 | < 5.11 | –
19 | COc1ccccc1OCCNC(=O)c1cc(C2CC2)nc2c1cnn2C(C)C | > 10 | – | pIC50 (FFLUC_HILL_SLOPE 16.8, FFLUC_R_SQUARED 0.0713, HEPG2TOX_HILL_SLOPE 2.22, HEPG2TOX_R_SQUARED 0.212, read-out: LUCIFERASE INFECTION ASSAY - IC50): < 5.00
20 | Cn1ncc2c(N3CCN(CC(=O)Nc4nc(-c5c[nH]c6ccccc56)cs4)CC3)ncnc21 | 4.22 | – | pIC50 (HEPG2TOX_HILL_SLOPE 3.32, HEPG2TOX_R_SQUARED 0.453, PBLUC_HILL_SLOPE 2.65, 8.86, PBLUC_R_SQUARED 0.123, 0.280, read-out: LUCIFERASE INFECTION ASSAY - IC50): 5.58
21 | N#Cc1cc([N+](=O)[O-])ccc1Sc1nnc(C2COc3ccccc3O2)n1-c1ccccc1 (stereo not drawn) | > 10 | < 5.00 | –
22 | COc1cccc(CN2CCN3C(C(=O)Nc4cccc(OC(F)(F)F)c4)=COC3=NC2=O)c1 | > 10 | – | pIC50 (HEPG2TOX_HILL_SLOPE 0.751, HEPG2TOX_R_SQUARED 0.867, PBLUC_HILL_SLOPE 2.96, PBLUC_R_SQUARED 0.388, read-out: LUCIFERASE INFECTION ASSAY - IC50): 5.16

Row | SMILES | IC90 [µM] | pIC50 [1] | further results
23 | CCC(C)NC(=O)c1c(NC(=O)c2cccc(C#N)c2)nc2ccc(C)cn12 (stereo not drawn) | 3.79 | – | pIC50 (HEPG2TOX_HILL_SLOPE 2.26, HEPG2TOX_R_SQUARED 0.914, PBLUC_HILL_SLOPE 14.3, PBLUC_R_SQUARED 0.23, read-out: LUCIFERASE INFECTION ASSAY - IC50): 5.49
24 | Cc1cc(C(=O)Oc2ccccc2C(N)=O)c(C)n1Cc1ccco1 | 1.27 | – | pIC50 (PBLUC_HILL_SLOPE 14.9, PBLUC_R_SQUARED 0.682, read-out: LUCIFERASE INFECTION ASSAY - IC50): 5.96
25 | Cc1cc(/C=C/C(=O)Nc2ccc(S(=O)(=O)NC3=NCCCCC3)cc2)c(C)n1-c1ccccc1 | 6.38 | – | pIC50 (FFLUC_HILL_SLOPE 1.16, FFLUC_R_SQUARED 0.166, PBLUC_HILL_SLOPE 1.89, PBLUC_R_SQUARED 0.7, read-out: LUCIFERASE INFECTION ASSAY - IC50): 5.70
26 | CC1=C(c2nc(-c3ccc(C)cc3)no2)C(c2ccco2)NC(=S)N1 (stereo not drawn) | > 10 | – | pIC50 (HEPG2TOX_HILL_SLOPE 4.63, HEPG2TOX_R_SQUARED 0.779, PBLUC_HILL_SLOPE 2.07, PBLUC_R_SQUARED 0.517, read-out: LUCIFERASE INFECTION ASSAY - IC50): 5.12
27 | CCc1sc(C(=O)Nc2ccc(F)c(Cl)c2)cc1C | 8.57 | – | pIC50 (PBLUC_HILL_SLOPE 228, PBLUC_R_SQUARED 0.104, read-out: LUCIFERASE INFECTION ASSAY - IC50): 5.07
28 | CC(C)[C@H](NS(=O)(=O)c1ccccc1)C(=O)NCc1ccccc1 | > 9.53 | < 5.02 | –
29 | N#Cc1ccc(NC(=O)Cn2ncc(Cl)c(Cl)c2=O)cc1 | 5.23 | – | pIC50 (HEPG2TOX_HILL_SLOPE 73.2, HEPG2TOX_R_SQUARED 0.451, PBLUC_HILL_SLOPE 8.64, PBLUC_R_SQUARED 0.375, read-out: LUCIFERASE INFECTION ASSAY - IC50): 5.39
30 | CC(NC(=O)Nc1ccc(C#N)c(Cl)c1)c1cccs1 (stereo not drawn) | > 10 | < 5.00 | –
31 | COC(=O)c1c(NC(C)=O)c2cc(NCC3CC=CCC3)cnc2n1CCc1c[nH]c2ccccc12 (stereo not drawn) | > 6.8 | – | pIC50 (PBLUC_HILL_SLOPE 16.1, PBLUC_R_SQUARED 0.211, read-out: LUCIFERASE INFECTION ASSAY - IC50): 5.18
32 | Cc1nc2sccn2c1C(=O)c1ccc(NS(=O)(=O)c2cc(C(=O)O)n(C)c2)cc1 | > 10 | < 5.00 | –
33 | Cc1c(C)c(C)c(S(=O)(=O)Oc2ccccc2N2CC(C)OC(C)C2)c(C)c1C (stereo not drawn) | > 7.9 | – | pIC50 (PBLUC_HILL_SLOPE 5.73, PBLUC_R_SQUARED 0.021, read-out: LUCIFERASE INFECTION ASSAY - IC50): < 5.10
34 | COC(=O)c1cc(OC)c(OC)cc1NC(=O)c1ccc(-c2cccc(Br)c2)nc1C | > 10 | < 5.00 | –
35 | CCC(=O)c1ccc(OCCCCn2cnc3ccccc32)cc1 | > 10 | < 5.00 | –
36 | Cc1ccc(S(=O)(=O)Nc2ccc(C(=O)Nc3ccccc3O)cc2)cc1C | 2.52 | – | pIC50 (PBLUC_HILL_SLOPE 2.83, PBLUC_R_SQUARED 0.529, read-out: LUCIFERASE INFECTION ASSAY - IC50): 5.94
37 | Cc1ccc(-c2cc(=O)n(-c3ccc(F)cc3)[nH]2)cc1 | 11.6 | – | pIC50 (HEPG2TOX_HILL_SLOPE 8.74, HEPG2TOX_R_SQUARED 0.98, PBLUC_HILL_SLOPE 2.08, PBLUC_R_SQUARED 0.732, read-out: LUCIFERASE INFECTION ASSAY - IC50): 5.39
38 | O=C(Nc1cccc(CNc2ccnc3cc(Cl)ccc23)c1)C1CC1 | > 10 | – | pIC50 (PBLUC_HILL_SLOPE 2.98, PBLUC_R_SQUARED 0.123, read-out: LUCIFERASE INFECTION ASSAY - IC50): 5.24
39 | Cc1cc(C)nc(N/N=C2/CCCC/C2=C\c2ccccc2)n1 | > 10 | < 5.00 | –
40 | CCCn1c(NC(=O)c2sc3ccccc3c2Cl)nc2ccccc21 | > 10 | < 5.00 | –
41 | CCN1CCN(c2ccc(NC(=O)CSc3nc4ccccc4s3)c(C)c2)CC1 | > 10 | < 5.00 | –
42 | O=C(CN1C(=O)C(=O)N(C2CCCC2)C1=O)Nc1cc(Cl)ccc1[N+](=O)[O-] | > 10 | < 5.00 | –
43 | COc1ccccc1NC(=O)Cc1noc(CNc2ccc(F)cc2C)n1 | > 10 | < 5.00 | –
44 | COc1ccc(NC(=O)Cc2cccs2)cc1S(=O)(=O)Nc1ccc(Cl)cc1 | > 10 | – | pIC50 (FFLUC_HILL_SLOPE 1.73, FFLUC_R_SQUARED 0.168, HEPG2TOX_HILL_SLOPE 1.26, HEPG2TOX_R_SQUARED 0.964, PBLUC_HILL_SLOPE 12.3, PBLUC_R_SQUARED 0.183, read-out: LUCIFERASE INFECTION ASSAY - IC50): 5.01
